Among the data in PubChem BioAssay AID328 (DTP/NCI, 2004) are T/C values, retold here.

This test relates to BDF1 mice, P388 leukemia ip, median survival T/C. As to the kind of experiment: NCI In Vivo Anticancer Drug Screen. Data for tumor model P388 Leukemia (intraperitoneal) in B6D2F1 (BDF1) mice. The conditions noted are these: endpoint: median survival time, higher = longer survival. A digest of the protocol: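 T/C = treated-group survival ÷ vehicle-control survival; tumour transplanted into mice before dosing.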

Setting [1] is: dose: 100.0 mg/kg/injection, schedule: Q04DX003 (ip), vehicle: Klucel (hydroxypropylcellulose) (HPC).
Where [2] appears, read: dose: 200.0 mg/kg/injection, schedule: Q04DX003 (ip), vehicle: Klucel (hydroxypropylcellulose) (HPC).
Setting [3] is: dose: 400.0 mg/kg/injection, schedule: Q04DX003 (ip), vehicle: Klucel (hydroxypropylcellulose) (HPC).
Where [4] appears, read: dose: 25.0 mg/kg/injection, schedule: Q01DX009 (ip), vehicle: saline with Tween-80.
Setting [5] is: dose: 50.0 mg/kg/injection, schedule: Q01DX009 (ip), vehicle: saline with Tween-80.
Where [6] appears, read: dose: 100.0 mg/kg/injection, schedule: Q01DX009 (ip), vehicle: saline with Tween-80.
Where [7] appears, read: dose: 100.0 mg/kg/injection, schedule: Q04DX003 (ip), vehicle: saline sonified.
The mark [8] stands for this setting: dose: 200.0 mg/kg/injection, schedule: Q04DX003 (ip), vehicle: saline sonified.
[9] abbreviates: dose: 12.5 mg/kg/injection, schedule: Q01DX009 (ip), vehicle: saline with Tween-80.
Setting [10] is: dose: 50.0 mg/kg/injection, schedule: Q04DX003 (ip), vehicle: saline sonified.
Setting [11] is: dose: 100.0 mg/kg/injection, schedule: Q04DX003 (ip), vehicle: saline.
[12] abbreviates: dose: 200.0 mg/kg/injection, schedule: Q04DX003 (ip), vehicle: saline.

Values joined by “and” are separate entries in the source; they are usually repeats but may differ in a detail not shown here. Equal values may be shown once. Inconclusive results and toxic doses are left out.

Take `CC(C)(C)OC(=O)NNC(c1ccccc1)c1ccccc1`: the T/C (dose: 50.0 mg/kg/injection, schedule: Q01DX001 (ip), vehicle: Klucel (hydroxypropylcellulose) (HPC)) was 91 % of control; the T/C (dose: 50.0 mg/kg/injection, schedule: Q01DX009 (ip), vehicle: other) is 105 % of control; the T/C (dose: 100.0 mg/kg/injection, schedule: Q01DX001 (ip), vehicle: Klucel (hydroxypropylcellulose) (HPC)) was 91 % of control; the T/C (dose: 100.0 mg/kg/injection, schedule: Q01DX009 (ip), vehicle: other) was 110 % of control; the T/C under setting [1] is 105 % of control; the T/C (dose: 200.0 mg/kg/injection, schedule: Q01DX001 (ip), vehicle: Klucel (hydroxypropylcellulose) (HPC)) was 95 % of control. In addition, the T/C reads like this: (dose: 200.0 mg/kg/injection, schedule: Q01DX009 (ip), vehicle: other) 100 % of control; under setting [2], 110 % of control; under setting [3], 105 % of control.

`COc1ccc(Cc2c3cc(OC)c(OC)cc3cc[n+]2C)cc1OC`: the T/C under setting [4] is 90 % of control; the T/C under setting [5] is 100 % of control; the T/C (dose: 100.0 mg/kg/injection, schedule: Q04DX003 (ip), vehicle: saline with Tween-80) was 108 % of control.

`COc1ccc(OC)c(/C=C/C(=O)c2ccc(Cl)cc2)c1`: the T/C by setting is: under setting [1], 104 % of control; under setting [2], 95 % of control; under setting [3], 104 % of control.

Regarding `CS(=O)(=O)C1CCCCC1SC#N` (centres undefined), the T/C runs as follows: under setting [5], 98 % of control; under setting [6], 115 % of control; (dose: 200.0 mg/kg/injection, schedule: Q01DX009 (ip), vehicle: saline with Tween-80) 115 % of control.

Consider `O=C(c1ccccc1Cl)c1cccc2ccccc12`, for which the T/C by setting is: (dose: 22.0 mg/kg/injection, schedule: Q01DX009 (ip), vehicle: Klucel (hydroxypropylcellulose) (HPC)) 100 % of control; (dose: 35.0 mg/kg/injection, schedule: Q01DX009 (ip), vehicle: Klucel (hydroxypropylcellulose) (HPC)) 100 % of control; (dose: 175.0 mg/kg/injection, schedule: Q04DX003 (ip), vehicle: Klucel (hydroxypropylcellulose) (HPC)) 100 % of control; under setting [3], 104 % of control; (dose: 600.0 mg/kg/injection, schedule: Q04DX003 (ip), vehicle: Klucel (hydroxypropylcellulose) (HPC)) 104 % of control.

For the molecule `N=C1SCc2ccc3ccccc3c21`, the T/C was 104 % of control under setting [5] and 106 % of control under setting [6].

For the molecule `CSN1C(=O)CCC1=O`, the T/C runs as follows: (dose: 50.0 mg/kg/injection, schedule: Q04DX002 (ip), vehicle: saline) 107 % of control; (dose: 100.0 mg/kg/injection, schedule: Q04DX002 (ip), vehicle: saline) 100 % of control; (dose: 200.0 mg/kg/injection, schedule: Q04DX002 (ip), vehicle: saline) 109 % of control.

Take `C(/C=N/N(c1ccccc1)c1ccccc1)=N\N(c1ccccc1)c1ccccc1`: the T/C was 100 % of control under setting [1], 104 % of control under setting [2] and 104 % of control under setting [3].

With `O=C(O)C1=CC(O)C(O)C(O)C1` (centres undefined), the T/C reads like this: (dose: 50.0 mg/kg/injection, schedule: Q01DX009 (ip), vehicle: saline) 87 % of control; (dose: 100.0 mg/kg/injection, schedule: Q01DX009 (ip), vehicle: saline) 100 % of control; under setting [7], 100 % of control; (dose: 200.0 mg/kg/injection, schedule: Q01DX009 (ip), vehicle: saline) 91 % of control; under setting [8], 100 % of control; (dose: 400.0 mg/kg/injection, schedule: Q04DX003 (ip), vehicle: saline sonified) 100 % of control.

With `CC1=C(/C=C/C(C)=C/C=C/C(C)=C/C(=O)O)C(C)(C)CCC1`, the T/C (dose: 6.25 mg/kg/injection, schedule: Q01DX009 (ip), vehicle: saline with Tween-80) was 95 % of control; the T/C under setting [9] was 104 % of control; the T/C under setting [4] is 104 % of control.

Consider `CCC1=C(c2cc(Cl)c3ccccc3c2OCC(=O)O)OC(CC)(C(=O)c2cc(Cl)c3ccccc3c2OCC(=O)O)CC1` (centres undefined), for which the T/C is 90 % of control under setting [4]; 95 % of control under setting [5]; 100 % of control under setting [10]; 115 % of control under setting [6]; 90 % of control under setting [8].

With `O=C1C(Cl)=C(N=Nc2c(Cl)c(O)c3ccccc3c2O)C(=O)c2ccccc21`, the T/C (dose: 3.12 mg/kg/injection, schedule: Q01DX009 (ip), vehicle: Klucel (hydroxypropylcellulose) (HPC)) was 110 % of control; the T/C (dose: 6.25 mg/kg/injection, schedule: Q01DX009 (ip), vehicle: Klucel (hydroxypropylcellulose) (HPC)) is 115 % of control; the T/C (dose: 12.5 mg/kg/injection, schedule: Q01DX009 (ip), vehicle: Klucel (hydroxypropylcellulose) (HPC)) was 116 % of control; the T/C (dose: 25.0 mg/kg/injection, schedule: Q01DX009 (ip), vehicle: Klucel (hydroxypropylcellulose) (HPC)) is 109 % of control.

Turning to `COCC12CCC(OC)C34C5CC6(O)C(OC)CC(OC(C)=O)(C5C6OC(=O)c5ccccc5)C(C(OC)C13)C4N(C)C2` (centres undefined), the T/C (dose: 0.13 mg/kg/injection, schedule: Q01DX009 (ip), vehicle: Klucel (hydroxypropylcellulose) (HPC)) was 93 % of control; the T/C (dose: 0.25 mg/kg/injection, schedule: Q01DX009 (ip), vehicle: Klucel (hydroxypropylcellulose) (HPC)) is 88 % of control; the T/C (dose: 0.5 mg/kg/injection, schedule: Q01DX009 (ip), vehicle: Klucel (hydroxypropylcellulose) (HPC)) is 102 % of control; the T/C (dose: 1.0 mg/kg/injection, schedule: Q01DX009 (ip), vehicle: Klucel (hydroxypropylcellulose) (HPC)) was 102 % of control.

With `C=C(C(=O)OC1C/C(C)=C/C(O)C/C(C)=C/C2OC(=O)C(=C)C21)C(C)O` (centres undefined), the T/C (dose: 100.0 mg/kg/injection, schedule: Q04DX002 (ip), vehicle: Klucel (hydroxypropylcellulose) (HPC)) was 120 % of control.

As for `COc1cc(Cc2nccc3cc(OC)c(OC)cc23)c(C(C)=O)c(OC)c1`, the T/C by setting is: (dose: 10.0 mg/kg/injection, schedule: Q01DX009 (ip), vehicle: saline) 157 % of control and 190 % of control; (dose: 20.0 mg/kg/injection, schedule: Q01DX009 (ip), vehicle: saline) 163 % of control and 170 % of control; (dose: 25.0 mg/kg/injection, schedule: Q04DX003 (ip), vehicle: saline) 154 % of control; (dose: 50.0 mg/kg/injection, schedule: Q04DX003 (ip), vehicle: saline) 157 % of control; under setting [11], 203 % of control and 206 % of control; under setting [12], 93 % of control.

`CC1(C)COC(C)(C)C(=O)O1`: the T/C is 95 % of control (dose: 50.0 mg/kg/injection, schedule: Q04DX003 (ip), vehicle: Klucel (hydroxypropylcellulose) (HPC)); 90 % of control under setting [1]; 100 % of control under setting [2].

Turning to `Cc1cc2nc3c(=O)[nH]c(=O)nc-3n(CC(O)C(O)C(O)CO)c2cc1C` (centres undefined), the T/C is, setting by setting: under setting [9], 102 % of control; under setting [4], 94 % of control; under setting [5], 107 % of control.

Turning to `CCOC(=O)c1cc(C)nnc1C(=O)OCC`, the T/C is, setting by setting: under setting [11], 95 % of control; under setting [12], 95 % of control; (dose: 400.0 mg/kg/injection, schedule: Q04DX003 (ip), vehicle: saline) 91 % of control.

On to `Cc1ncc(CO)c(C2NOCc3nscc32)c1O` (centres undefined), for which the T/C is 95 % of control (dose: 7.0 mg/kg/injection, schedule: Q01DX009 (ip), vehicle: Klucel (hydroxypropylcellulose) (HPC)); 104 % of control (dose: 11.25 mg/kg/injection, schedule: Q01DX001 (ip), vehicle: saline); 95 % of control (dose: 14.0 mg/kg/injection, schedule: Q01DX009 (ip), vehicle: Klucel (hydroxypropylcellulose) (HPC)); 95 % of control (dose: 19.0 mg/kg/injection, schedule: Q04DX003 (ip), vehicle: saline); 104 % of control (dose: 22.5 mg/kg/injection, schedule: Q01DX001 (ip), vehicle: saline); 100 % of control (dose: 45.0 mg/kg/injection, schedule: Q01DX001 (ip), vehicle: saline). The T/C (dose: 45.0 mg/kg/injection, schedule: Q04DX003 (ip), vehicle: saline) is 90 % of control.

For `COc1ccc(C(=O)NN2C(N)=NC(N)=NC2(C)C)cc1`, the T/C reads like this: under setting [10], 100 % of control; under setting [7], 100 % of control; under setting [8], 105 % of control.
